From ChEMBL document CHEMBL3301361, “Experimental in vitro DMPK and physicochemical data on a set of publicly disclosed compounds”
≈ marks a conversion by molar mass, not a printed value.

Assays:
in vitro [1] = conditions: human
physchem [2] = assay: physchem
physchem [3] = assay: physchem; remark: listed apart in the source
physchem [4] = conditions: octan-1-ol/water, pH 7.4, LogD7.4
physchem [5] = conditions: pH 7.4 buffer
in vitro [6] = conditions: SD, HW or BN, rat, plasma
in vitro [7] = conditions: human, plasma

SMILES | microsomal CLint (in vitro [1]; microsomes) [µL/min/mg] | pKa (physchem [2]) | pKa (physchem [3]) | logD (physchem [4]) | solubility thermodynamic (physchem [5]) [µM] | fraction unbound at 5 h (in vitro [6]) | fraction unbound at 5 h (in vitro [7]; PPB) | microsomal CLint (in vitro [1]; liver microsomes) [µL/min/mg] | fraction unbound at 5 h (in vitro [7])
CCC(=O)NC(c1cccs1)c1cc(Cl)c2cccnc2c1O (stereo unspecified) | 21.4 | 2.5 | 8.19 | – | – | – | – | – | –
Cc1cc(CN2Cc3ccccc3C2C(=O)Nc2ccc(Cl)cc2Cl)ccc1OCC(=O)O (stereo unspecified) | – | 5.6 | 3.1 | 2.62 | 479 (≈ 232 µg/mL) | 0.0014 | 0.0013 | – | –
O=C(O)COc1ccc(Cl)cc1CN1CCCN(S(=O)(=O)Cc2ccccc2)CC1 | – | 8.3 | 3.4 | – | – | – | 0.157 | – | –
Cc1ccc2c(c1)c(-c1ccnc3c(C(F)(F)F)cccc13)c(C)n2CC(=O)O | – | 3.5 | 2.4 | 1.27 | – | – | 0.0038 | – | –
Cc1cc(Cl)ccc1OC1CCN(C[C@H](O)CNC(=O)c2c[nH]c(=O)cc2C(F)(F)F)CC1 | – | 7.5 | 8.6 | 2.37 | – | – | – | < 3 | –
Nc1cc(-c2cc(C(F)(F)F)ccc2Oc2cc(F)c(S(=O)(=O)Nc3ncns3)cc2Cl)ccn1 | – | 6.4 | 3.18 | – | – | 0.0035 | – | – | –
Nc1nc(O)c(Cl)c(-c2ccccc2)n1 | – | 2.35 | 7.45 | – | – | 0.0661 | – | – | 0.0477
CCCN(CCC)CCc1ccc(O)c(NC(C)=O)c1 | – | 10.8 | 8.75 | – | – | – | – | 36 | –
CCn1cc(C(=O)O)c(=O)c2cc(F)c(N3CCNCC3)nc21 [ENOXACIN] | – | 8.76 | 6.2 | -0.83 | – | – | 0.656 | – | –
COc1c(C)c2c(c(O)c1C/C=C(\C)CCC(=O)OCCN1CCOCC1)C(=O)OC2 [MYCOPHENOLATE MOFETIL] | – | 6.06 | 8.01 | 2.26 | 87.1 (≈ 37.8 µg/mL) | – | – | – | –

Second part, the compound after the results:

microsomal CLint (in vitro [1]; microsomes) [µL/min/mg] | pKa (physchem [2]) | pKa (physchem [3]) | logD (physchem [4]) | solubility thermodynamic (physchem [5]) [µM] | fraction unbound at 5 h (in vitro [6]) | fraction unbound at 5 h (in vitro [7]; PPB) | microsomal CLint (in vitro [1]; liver microsomes) [µL/min/mg] | fraction unbound at 5 h (in vitro [7]) | SMILES
– | 8.7 | 4.3 | – | 141 (≈ 65.5 µg/mL) | – | – | 6 | – | O=C(O)c1cccc(N2CCC(CN3CCC(Oc4ccc(Cl)c(Cl)c4)CC3)CC2)c1
< 3 | 8.2 | 2.9 | 1.09 | – | – | 0.013 | – | – | O=C(O)COc1cccc(C(=O)N2CCC(N3CCC(Oc4ccc(Cl)c(Cl)c4)CC3)CC2)c1
– | 8.6 | 3.4 | 1.23 | – | – | 0.0499 | < 3 | – | O=C(O)c1cccc(C(=O)N2CCC(N3CCC(Oc4ccc(Cl)c(Cl)c4)CC3)CC2)c1
– | 8.1 | 3.3 | 1.5 | – | – | 0.186 | < 3 | – | O=C(NS(=O)(=O)c1ccccc1)N1CCC(N2CCC(Oc3ccc(Cl)c(Cl)c3)CC2)CC1
11 | 8.45 | 3 | 1.79 | – | – | 0.194 | – | – | O=C(NS(=O)(=O)c1ccc(F)cc1)N1CCC(N2CCC(Oc3ccc(Cl)c(Cl)c3)CC2)CC1
– | 8.2 | 2.5 | 2.59 | – | – | 0.329 | 5 | – | O=C(NS(=O)(=O)c1ccc(Cl)cc1)N1CCC(N2CCC(Oc3ccc(Cl)c(Cl)c3)CC2)CC1
– | 8.3 | 3.6 | 1.39 | – | – | 0.0127 | < 3 | – | COc1ccc(S(=O)(=O)NC(=O)N2CCC(N3CCC(Oc4ccc(Cl)c(Cl)c4)CC3)CC2)cc1
– | 8.6 | 6.6 | 1.74 | – | – | 0.0175 | 33 | – | CN(C)c1ccccc1S(=O)(=O)NC(=O)N1CCC(N2CCC(Oc3ccc(Cl)c(Cl)c3)CC2)CC1
– | 8.7 | 3.2 | 2.2 | – | – | 0.179 | 3 | – | Cc1ccc(S(=O)(=O)NC(=O)N2CCC(N3CCC(Oc4ccc(Cl)c(C)c4Cl)CC3)CC2)cc1
– | 7.7 | 8.3 | 2.71 | – | – | – | 6 | – | O=C(NC[C@@H](O)CN1CCC(Oc2ccc(Cl)c(Cl)c2)CC1)c1c[nH]c(=O)cc1C(F)(F)F
